Data: PMC11928584, “H105A peptide eye drops promote photoreceptor survival in murine and human models of retinal degeneration” (Communications Medicine, 2025)
Where a SMILES comes first, the peptide text is derived from it.

Columns and labels:
[1] = biological target: T1, recombinant human PEDF-R[1–288] (Homo sapiens, UniProt Q96AD5); assay: Phospholipase A2 activity assay (EnzChek); type: biochemical; conditions: purified recombinant PEDF-R in the presence of peptides
T1 construct: SUMOstar (N); His tag (N); made in house; host or cells: Escherichia coli Rosetta(DE3), co-transformed with pGro7 (groES-groEL)
T1 sequence (Q96AD5 1-288): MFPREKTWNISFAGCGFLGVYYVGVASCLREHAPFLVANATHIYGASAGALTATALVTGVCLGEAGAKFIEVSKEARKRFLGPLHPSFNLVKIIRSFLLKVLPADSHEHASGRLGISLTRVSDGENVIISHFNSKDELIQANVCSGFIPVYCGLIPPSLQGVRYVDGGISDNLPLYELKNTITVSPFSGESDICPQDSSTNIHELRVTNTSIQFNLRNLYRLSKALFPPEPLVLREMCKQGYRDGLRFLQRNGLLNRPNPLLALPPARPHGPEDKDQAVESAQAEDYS
From the text: To obtain the PEDF-R protein, the following procedure was followed. For plasmid construction, the plasmid used for expression was pE-SUMOstar-PEDF-R[1–288] C-terminal TwinStrep tagged. This plasmid contained the coding sequence for the human PEDF-R open reading frame between positions 1 and 288. For transformation: The expression plasmid and pGro7(groES-groEL) were co-transformed into Escherichia coli Rosetta(DE3) to obtain colonies for recombinant protein expression[34],[35]. The transformed cells were plated on Luria-Bertani (LB) agar plate containing 10 μg/ml chloramphenicol and 100 µg/ml ampicillin followed by overnight incubation at 37 °C to obtain colonies. A total of 100 ml of LB media containing 10 μg/ml chloramphenicol and 100 µg/ml ampicillin was inoculated with a single colony and incubated at 37 °C with vigorous shaking overnight. Then, 1 liter of LB media containing 0.5 mg/ml L-(+) arabinose, 2% D-(+)-Glucose, 10 μg/ml chloramphenicol and 100 µg/ml ampicillin was inoculated with 2% of the overnight culture and incubated at 37 °C with vigorous shaking until the O.D.600 nm reached 0.5-0.6. […]
Phospholipase A2 (PLA2) activity was determined using EnzChek™ Phospholipase A2 Assay Kit (Thermo Fisher Scientific, cat. E10217) according to the manufacturer’s instructions and as described before. […] Fluorescence emission was measured at 515 nm with excitation at 460 nm. […]

[2] = Stability of peptide H105A against temperature (storage); type: physicochemical
Experimental: Lyophilized peptides were dissolved in sterile HBSS at 1 mg/ml and stored at −20 °C. Before the peptides were used, the peptide solution was brought to room temperature and subjected to centrifugation (Eppendorf, Centrifuge 5430 R) at 20,800 x g for 10 min at 4 °C to clear and separate particulate material. In case a precipitate was found, the pH of the solution was adjusted to neutral pH with either NaOH or HCl and all peptides were soluble. The concentration of peptide solutions was determined using spectrophotometry (NanoDrop, Thermo Fisher Scientific). The stability of peptide H105A against temperature was performed and summarized in Supplementary Table 2.
Supplementary Table 2. Stability of 17- mer[H105A] peptide.
Concentration (mg/mL) Store Concentration (mg/mL)
*FT, Freeze and thaw cycles daily

CC[C@H](C)[C@H](NC(=O)[C@H](CC(C)C)NC(=O)[C@H](CC(=O)O)NC(=O)[C@H](Cc1ccc(O)cc1)NC(=O)[C@H](Cc1ccc(O)cc1)NC(=O)[C@H](CC(C)C)NC(=O)[C@H](C)NC(=O)[C@H](CCCNC(=N)N)NC(=O)[C@H](C)NC(=O)[C@@H](NC(=O)[C@@H](NC(=O)[C@H](CO)NC(=O)[C@H](CCC(=O)O)NC(=O)[C@@H](NC(=O)[C@H](CCCNC(=N)N)NC(=O)[C@@H](N)CCC(N)=O)[C@@H](C)O)[C@@H](C)CC)[C@@H](C)CC)C(=O)N[C@@H](CO)C(=O)O [H105A] (H-QRTESIIARALYYDLIS-OH)
stimulation of PLA2 activity of PEDF-R [1]: functional effectors of PEDF-R | Concentration, Day 8 ([2]; sample 1, stored at RT): 1080 µg/mL | Concentration, Day 8 ([2]; sample 2, stored at 4°C): 1160 µg/mL | Concentration, Day 8 ([2]; sample 3, stored at -20°C): 1080 µg/mL | Concentration, Day 8 ([2]; sample 4, stored at -20°C [FT], freeze and thaw cycles daily): 1280 µg/mL
